According to patent US6596712B2, “Treatment of carcinomas using squalamine in combination with other anti-cancer agents or modalities” (Genaera Corporation, priority 1996, dated 2003):

Tests used:
[1] = system: capillary beds of young chick embryos; test: Capillary regression in chick embryo capillary beds; type: in vivo; conditions: one time dose 100 ng
Description: A one time dose (100 ng) of squalamine was applied to capillary beds of young chick embryos that were 2-3 days old. After five minutes, this dose of squalamine appeared to have little effect on the capillary beds.
The capillary bed also was observed after sixty minutes. At this time, it was noted that some of the capillary vessels were beginning to re-appear, but only the more major vessels were re-appearing. The small vessels were not re-appearing at that time. Four to five days after the one time squalamine treatment, the effect of the squalamine dose was no longer apparent, but newly formed capillaries in the embryos remained susceptible to squalamine induced regression for a limited time while they were newly formed.
From this test, applicants concluded that squalamine-induced capillary regression is reversible, at least with respect to certain capillaries.

LNCaP cells [2] = test: LNCaP cell growth in vitro ([3H]-thymidine incorporation); type: cell-based, human
Description: The anti-proliferative effect of squalamine was evaluated in tissue culture by both crystal violet staining and [^3H]-thymidine incorporation, on the LNCaP/C4-2 human prostate cancer progression model. Developed by applicants' laboratory, this lineage-derived cell line recapitulates the progression of human neoplastic prostate disease from an androgen-dependent and minimally metastatic condition (LNCaP cells) to an androgen-independent (defined as being able to proliferate in castrate hosts) and highly aggressive state (C4-2 subline).
In vitro experiments were also conducted with the LNCAP cell line in which cell proliferation as judged by [3H]-thymidine uptake was determined. LNCaP cells were maintained as previously described (cf. J. T. Hsieh et al., Cancer Research 53, 2852-2857 (1993)). Cells were exposed to 20 ng/mL vascular endothelial growth factor (VEGF), 20 μg/mL squalamine or a combination of VEGF and squalamine. […] As a consequence, the mechanism underlying the effectiveness of squalamine treatment of the LNCaP tumor in vivo may under certain conditions also involve direct inhibition of tumor cell growth and/or induction of tumor cell death.

H460 = H460 lung tumor xenograft with carboplatin; type: in vivo, nude BALBc mice; conditions: carboplatin 60 mg/kg i.p. single dose, squalamine 20 mg/kg once daily for 5 days
Description: About 5×10^6 cells from each of two human lung tumor lines, H460 (a rapidly proliferating large cell carcinoma cell line, ATCC HTB-177) and Calu-6 (an anaplastic carcinoma, ATCC HTB-56), were inoculated subcutaneously in the right foreleg of nude BALBc mice. Once tumors were visible (3-5 days) with a mean volume of approximately 50-80 mm^3, mice were treated intraperitoneally with 60 mg/kg carboplatin (single dose) or 20 mg/kg/squalamine (once daily for 5 days) or a combination of carboplatin and squalamine. There were 8 mice per group. Tumor growth inhibition was scored by quantifying the size of tumors once control tumors reached a size of 1.0 gram and determining the ratio of mean treated tumor size to mean control tumor size (T/C). Tumor growth inhibition was then scored as 100% x [1-(T/C)]. A separate antitumor activity variable, tumor growth delay, was scored for the tumors by determining the length of time it required for the mean tumor size in a treatment group to reach a size of 500 mm^3 (B. A. Teicher et al., Anticancer Research 18, 2567-2574 (1998)). The tumor growth inhibition seen with carboplatin plus squalamine was greater than that seen with carboplatin or squalamine alone. The relative inactivity of squalamine as a single agent by this assay endpoint supports the idea that squalamine is synergistic with carboplatin in the inhibition of these two human lung tumor xenografts. Similarly, it was determined that squalamine enhanced the tumor growth delay caused by carboplatin by an enhancement factor of >2.3 (Table 7).

NHE = test: Direct addition to PS 120 fibroblasts during measurement of exchanger activity; type: cell-based; conditions: no pretreatment
Source text: Direct addition of squalamine to PS 120 fibroblasts during measurement of the exchanger activity had no effect.

[3] = system: Calu-6 human lung adenocarcinoma line; test: Nude mouse xenograft model of lung cancer with cisplatin, Calu-6; type: in vivo; conditions: started on day 4 or 5, daily i.p.
Source text: Studies in a nude mouse xenograft model of lung cancer have been carried out using several human lung cancer lines which differ in their growth rate. […] The experimental lung cancer model design involves subcutaneous injection of 5×10^6 tumor cells followed by a single injection of the chemotherapeutic drug on day 3 or 4. […] Groups of mice receiving squalamine alone started receiving the aminosterol on the same day as aminosterol treatment in the combination chemotherapy groups. Tumor volumes were then determined at termination of the experiment and compared.

[4] = Squalamine toxicity test in rats; type: in vivo; conditions: 20 mg/kg/day i.p. for more than 30 days; maintained up to 200 days
Description: A squalamine toxicity test was performed in another animal model. Conventional cytotoxic chemical compounds are quite toxic. […] For this reason, it is administered only one time to a patient. The use of BCNU is described on pages 304 and 305 of Calabresi in Medical Oncology, supra. In order to test the toxicity of squalamine, a group of rats was given a daily squalamine dose of 20 mg/kg/day (i.p.) for more than 30 days and maintained for up to 200 days following dosing.

LNCaP cells [5] = test: LNCaP xenograft post-orchiectomy (Example 6); type: in vivo, athymic mice; conditions: 20 mg/kg/day for six to ten weeks from castration
Source text: LNCaP cells admixed with Matrigelm were implanted subcutaneously in 52 athymic mice. Those that developed measurable tumors and sufficient elevations in serum prostate specific antigen (“PSA”) (measured using a standard commercially available kit such as from Abbott Diagnostics (St. Louis, Mo.)) underwent orchiectomy. Subsequent to castration, these animals were distributed among the four groups (1-4) outlined below: and an additional control cohort of mice which were castrated but never treated with squalamine.
In the majority of animals, PSA levels fell to zero at time of castration. By three weeks they began to rebound and continued to rise steadily until the animals succumbed or were sacrificed. In these same mice, tumor size tended to plateau at time of orchiectomy, before beginning to increase in size correspondingly with PSA rebound. The serum PSA curve and tumor volume measurements from two members of this last control cohort are illustrated in FIG. 15a and b, respectively.
Ten mice began treatment with squalamine concomitant with the fall in PSA after castration (Group 1). Of these, three never experienced a post-orchiectomy PSA nadir, and one experienced an early death, of unknown etiology. Six animals, however, were treated with squalamine (at 20 mg/kg/day) for a range of six to ten weeks. […]

Structure (SMILES): CC(C)[C@@H](CC[C@@H](C)[C@H]1CC[C@H]2[C@@H]3[C@H](O)C[C@H]4C[C@@H](NCCCNCCCCN)CC[C@]4(C)[C@H]3CC[C@]12C)OS(=O)(=O)O [Squalamine, squalamine]
- effect on capillary beds ([1]; after five minutes): little effect
- effect on capillary beds ([1]; after forty minutes): additional capillary regression was observed
- effect on capillary beds ([1]; in twenty minutes): the capillary bed appeared to be disappearing
- Percent of Control [3H]-Thymidine Uptake (LNCaP cells [2]; 20 ng/mL VEGF and/or 20 μg/mL squalamine, 24 hours, media containing serum): 75%
- effect on cell growth alone (LNCaP cells [2]; media containing serum, 20 ng/mL VEGF or 20 μg/mL squalamine): minimal effects on cell growth
- growth of LNCaP cells, squalamine by itself (LNCaP cells [2]; no exogenous VEGF): nominal effect
- LNCaP proliferation (LNCaP cells [2]; with addition of exogenous VEGF): inhibited
- Tumor Growth Inhibition (T/C) (H460): 6%
- effect of direct addition during measurement of exchanger activity (NHE): no effect
- tumor growth, monotherapy [3]: minimal effects on tumor growth
- toxicity, health of animals [4]: remained healthy
- tumor masses (LNCaP cells [5]): tended to diminish and, eventually, disappear
